ChEMBL document CHEMBL1145313, “Identification of potent and highly selective chiral tri-amine and tetra-amine mu opioid receptors ligands: an example of lead optimization using mixture-based libraries” (Bioorg Med Chem Lett, 2006)

Experiments:
[1] = target: Mu-type opioid receptor (Cavia porcellus, UniProt P97266); experiment: Antagonist activity against mu opioid receptor in guinea-pig ileum assay; type: functional, tissue-based
[2] = target: Mu-type opioid receptor (Cavia porcellus) (UniProt P97266); experiment: Activity at mu opioid receptor in guinea-pig ileum assay; type: functional, tissue-based; conditions: filed as antagonist
Mu-type opioid receptor (Cavia porcellus), sequence (P97266 whole entry): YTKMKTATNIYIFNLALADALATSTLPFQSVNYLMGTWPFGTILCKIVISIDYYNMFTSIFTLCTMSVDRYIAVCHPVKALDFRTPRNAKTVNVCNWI

[3] = target: Delta-type opioid receptor (Homo sapiens, UniProt P41143); experiment: Displacement of [3H]DPDE from delta opioid receptor
Delta-type opioid receptor, sequence (P41143 whole entry): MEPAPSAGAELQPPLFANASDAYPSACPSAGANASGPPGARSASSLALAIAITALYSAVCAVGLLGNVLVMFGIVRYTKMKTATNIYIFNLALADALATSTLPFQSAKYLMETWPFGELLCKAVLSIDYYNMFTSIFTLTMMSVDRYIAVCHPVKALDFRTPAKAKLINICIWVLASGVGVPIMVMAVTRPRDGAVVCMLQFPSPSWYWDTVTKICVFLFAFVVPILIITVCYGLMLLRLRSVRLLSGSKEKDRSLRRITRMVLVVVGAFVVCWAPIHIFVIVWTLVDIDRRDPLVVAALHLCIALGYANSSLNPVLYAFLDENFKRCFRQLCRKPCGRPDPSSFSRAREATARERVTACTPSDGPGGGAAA

[4] = target: Kappa-type opioid receptor (Homo sapiens, UniProt P41145); experiment: Displacement of [3H]U-69593 from kappa opioid receptor
Kappa-type opioid receptor, sequence (P41145 whole entry): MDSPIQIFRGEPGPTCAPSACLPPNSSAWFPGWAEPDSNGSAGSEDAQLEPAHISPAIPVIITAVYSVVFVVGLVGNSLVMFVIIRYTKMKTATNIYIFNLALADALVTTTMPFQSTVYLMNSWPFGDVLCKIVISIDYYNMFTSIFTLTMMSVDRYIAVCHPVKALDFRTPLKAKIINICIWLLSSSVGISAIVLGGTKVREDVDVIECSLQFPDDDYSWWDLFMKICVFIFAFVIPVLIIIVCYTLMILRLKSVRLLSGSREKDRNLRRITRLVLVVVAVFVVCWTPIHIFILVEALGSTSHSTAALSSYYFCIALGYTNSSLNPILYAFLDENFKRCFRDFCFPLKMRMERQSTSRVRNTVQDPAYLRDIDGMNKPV

[5] = target: Mu-type opioid receptor (Rattus norvegicus, UniProt P33535); experiment: Displacement of [3H]DAMGO from mu opioid receptor in rat brain homogenate; type: tissue-based
Mu-type opioid receptor (Rattus norvegicus, UniProt P33535), sequence (P33535 whole entry): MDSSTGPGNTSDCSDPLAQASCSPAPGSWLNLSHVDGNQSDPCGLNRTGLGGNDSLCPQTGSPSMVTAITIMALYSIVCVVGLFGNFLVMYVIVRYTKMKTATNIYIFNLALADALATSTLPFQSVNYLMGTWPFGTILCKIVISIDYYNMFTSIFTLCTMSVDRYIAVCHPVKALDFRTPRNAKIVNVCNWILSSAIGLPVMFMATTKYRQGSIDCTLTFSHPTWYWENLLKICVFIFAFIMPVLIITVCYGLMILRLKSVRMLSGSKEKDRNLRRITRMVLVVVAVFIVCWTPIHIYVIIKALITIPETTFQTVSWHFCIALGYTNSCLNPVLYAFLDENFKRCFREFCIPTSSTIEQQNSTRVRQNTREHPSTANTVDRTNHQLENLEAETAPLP

Mu-type opioid receptor (Cavia porcellus, UniProt P97266), sequence (P97266 whole entry): as the sequence (P97266 whole entry) above

For `CNC[C@@H]1CCCN1C[C@H](Cc1ccccc1)N(C)C[C@H](Cc1ccc(O)cc1)N(C)C[C@@H](N)Cc1ccc(O)cc1`, which IC50 [1] is on record?
The IC50 was 0.013 µM.

And the Activity [2]?
Its Activity is “Antagonist”.

`CNC[C@@H](Cc1ccccc1)N(C)C[C@H](Cc1ccc(O)cc1)N(C)C[C@@H](Cc1ccc(O)cc1)N(C)C` was tested. Which Activity [2] did it give?
Its Activity is “Antagonist”.

What about the IC50 [3] of the same molecule?
The IC50 was 11.3 µM.

And the IC50 [4]?
The IC50 was 15.6 µM.

What about the IC50 [5] of the same molecule?
The IC50 was 0.958 µM.

What does the source list for `CNC[C@H](Cc1ccccc1)N(C)C[C@H](Cc1ccc(O)cc1)N(C)C[C@@H](Cc1ccc(O)cc1)N(C)C`?
Activity [2]: Antagonist; IC50 [3]: 9.05 µM; IC50 [4]: 10.5 µM; IC50 [5]: 0.662 µM

Which IC50 [1] does the source give for `N[C@@H](Cc1ccc(O)cc1)CN(Cc1ccc2ccccc2c1)[C@@H](Cc1ccc(O)cc1)CN(Cc1ccc2ccccc2c1)[C@@H](Cc1ccccc1)CN1CCC[C@H]1CNCc1ccc2ccccc2c1` here?
The IC50 was 18.6 µM.

For `CNC[C@@H]1CCCN1C[C@H](Cc1ccccc1)N(C)C[C@H](Cc1ccc(O)cc1)N(C)C[C@H](Cc1ccc(O)cc1)N(C)C`, which IC50 [1] is on record?
Its IC50 is 0.008 µM.

Which Activity [2] does the source give for `CNC[C@@H](Cc1ccccc1)N(C)C[C@@H](Cc1ccc(O)cc1)N(C)C[C@H](Cc1ccc(O)cc1)N(C)C` here?
Its Activity is “Antagonist”.

And the IC50 [3]?
Its IC50 is 17 µM.

What about the IC50 [4] of the same molecule?
Its IC50 is 22.4 µM.

What about the IC50 [5] of the same molecule?
Its IC50 is 0.876 µM.

For `CNC[C@@H](Cc1ccccc1)N(C)C[C@@H](Cc1ccc(O)cc1)N(C)C[C@@H](Cc1ccc(O)cc1)N(C)C`, which Activity [2] is on record?
The Activity was “Antagonist”.

What about the IC50 [3] of the same molecule?
Its IC50 is 4.97 µM.

What about the IC50 [4] of the same molecule?
Its IC50 is 8.76 µM.

And the IC50 [5]?
The IC50 was 0.835 µM.

What does the source list for `CNC[C@H](Cc1ccccc1)N(C)C[C@@H](Cc1ccc(O)cc1)N(C)C[C@@H](Cc1ccc(O)cc1)N(C)C`?
Activity [2]: Antagonist; IC50 [3]: 17.8 µM; IC50 [4]: 6.06 µM; IC50 [5]: 1.5 µM

With `CNC[C@@H](Cc1ccccc1)N(C)C[C@H](Cc1ccc(O)cc1)N(C)C[C@@H](N)Cc1ccc(O)cc1` as the molecule, how does the Activity [2] read?
Its Activity is “Antagonist”.

And the IC50 [3]?
Its IC50 is 8.53 µM.

What about the IC50 [4] of the same molecule?
The IC50 was 1.45 µM.

And the IC50 [5]?
Its IC50 is 0.037 µM.

How did the IC50 [1] turn out when `NC[C@@H]1CCCN1C[C@H](Cc1ccccc1)NC[C@H](Cc1ccc(O)cc1)NC[C@@H](N)Cc1ccc(O)cc1` was run?
The IC50 was 0.006 µM.

For `N[C@@H](Cc1ccc(O)cc1)CN(Cc1ccccc1)[C@@H](Cc1ccc(O)cc1)CN(Cc1ccccc1)[C@@H](Cc1ccccc1)CN1CCC[C@H]1CNCc1ccccc1`, which IC50 [1] is on record?
The IC50 was 4.46 µM.

Which Activity [2] does the source give for `CNC[C@H](Cc1ccccc1)N(C)C[C@H](Cc1ccc(O)cc1)N(C)C[C@H](Cc1ccc(O)cc1)N(C)C` here?
Its Activity is “Antagonist”.

And the IC50 [3]?
The IC50 was 4.89 µM.

And the IC50 [4]?
The IC50 was 1.05 µM.

What about the IC50 [5] of the same molecule?
Its IC50 is 0.0005 µM.

With `CNC[C@@H]1CCCN1C[C@H](Cc1ccccc1)N(C)C[C@H](Cc1ccc(O)cc1)N(C)C[C@H](Cc1ccc(O)cc1)NC` as the molecule, how does the IC50 [1] read?
The IC50 was 0.002 µM.

For `CCNC[C@@H]1CCCN1C[C@H](Cc1ccccc1)N(CC)C[C@H](Cc1ccc(O)cc1)N(CC)C[C@@H](N)Cc1ccc(O)cc1`, which IC50 [1] is on record?
The IC50 was 0.045 µM.

How did the Activity [2] turn out when `CNC[C@H](Cc1ccccc1)N(C)C[C@@H](Cc1ccc(O)cc1)N(C)C[C@@H](N)Cc1ccc(O)cc1` was run?
The Activity was “Antagonist”.

And the IC50 [3]?
Its IC50 is 48.2 µM.

What about the IC50 [4] of the same molecule?
Its IC50 is 22.5 µM.

What about the IC50 [5] of the same molecule?
Its IC50 is 0.339 µM.

Which IC50 [3] does the source give for `CN(C)[C@@H](Cc1ccc(O)cc1)CN(C)[C@H](CNCc1ccccc1)Cc1ccc(O)cc1` here?
Its IC50 is 8.26 µM.

And the IC50 [4]?
Its IC50 is 2.36 µM.

What about the IC50 [5] of the same molecule?
Its IC50 is 0.038 µM.
